{
  "source": "patent US4296032A",
  "about": "(priority 1979, dated 1981)",
  "format_in_all_cases": "cell-based",
  "key": {"[1]": {"system": "Staph. aureus Russell", "test": "MIC of ampicillin in the presence of the inhibitor, Staph. aureus Russell", "procedure": "(§1) The MIC of ampicillin was determined in the presence of the pivaloyloxymethyl ester of 6-β-bromopenicillanic acid (inhibitor)."}, "[2]": {"system": "Klebsiella aerogenes E70", "test": "MIC of ampicillin in the presence of the inhibitor, Klebsiella aerogenes E70", "procedure": "as §1"}, "[3]": {"system": "Proteus sp. C889", "test": "MIC of ampicillin in the presence of the inhibitor, Proteus sp. C889", "procedure": "as §1"}, "[4]": {"system": "E. coli JT. 39", "test": "MIC of ampicillin in the presence of the inhibitor, E. coli JT. 39", "procedure": "as §1"}},
  "data": [
    {"smiles": "CC(C)(C)C(=O)OCOC(=O)[C@@H]1N2C(=O)[C@@H](Br)[C@H]2SC1(C)C", "note": "[pivaloyloxymethyl 6β-bromopenicillanate]", "values": [
      {"measurement": "MIC of Ampicillin", "setting": "[1]; inhibitor conc. 5 μg/ml", "value": 3.1, "unit": "µg/mL"},
      {"measurement": "MIC of Ampicillin", "setting": "[1]; inhibitor conc. 20 μg/ml", "value": 0.78, "unit": "µg/mL"},
      {"measurement": "MIC of Ampicillin", "setting": "[2]; inhibitor conc. 5 μg/ml", "value": 12.5, "unit": "µg/mL"},
      {"measurement": "MIC of Ampicillin", "setting": "[2]; inhibitor conc. 20 μg/ml", "value": 6.2, "unit": "µg/mL"},
      {"measurement": "MIC of Ampicillin", "setting": "[3]; inhibitor conc. 5 μg/ml", "value": 31, "unit": "µg/mL"},
      {"measurement": "MIC of Ampicillin", "setting": "[3]; inhibitor conc. 20 μg/ml", "value": 8, "unit": "µg/mL"},
      {"measurement": "MIC of Ampicillin", "setting": "[4]; inhibitor conc. 5 μg/ml", "value": 4, "unit": "µg/mL"},
      {"measurement": "MIC of Ampicillin", "setting": "[4]; inhibitor conc. 20 μg/ml", "value": 2, "unit": "µg/mL"}
    ]}
  ]
}
